The values that follow come from patent publication US20040013631A1, “Skin care cosmetic compositions containing carboxyalkylates of branched alcohols and/or alkoxylates thereof” (Unilever Home & Personal Care USA, Division of Conopco, priority 2002, published 2004).

Read-outs that look alike come from different tables or passages of the source. Marks after values point to notes of the source that are not given here.

One series concerns human sebocytes. The series can be described thus: Inhibition of sebocyte lipogenesis (14C-acetate label remaining in sebocytes). The series is classed as cell-based. The settings on record: for IC50: read-out: IC 50 (concentration which provides a 50% sebum suppression relative to the control).
A short description of series [1]: Light absorbency (color) at 340-500 nm, Spectramax 340 spectrophotometer. The series is classed as physicochemical. The settings on record: from absorbency values at 340-500 nm.
The mark [2] stands for this setting: Homo sapiens, 20 hour incubation, 96 well plate.
[3] abbreviates: 20 hour incubation, 96 well plate.

For the compound `CC(C)CCCC(C)CCCC(C)CCO` (centres unmarked) [Compound 6, 3,7,11-trimethyl 1-dodecanol], the IC50 in the series on human sebocytes (setting [2]) is above 100 µM.
As to `CC(C)CCCC(C)CCCC(C)CCOCCC(=O)O` (centres unmarked) [Compound 7, 3,7,11-trimethyl 1-dodecanol carboxyethylate], the IC50 with human sebocytes (setting [2]) came out at 10 µM. In addition, in the series on human sebocytes (ratio of IC50 values of Table 3), the “activity as sebum suppressant relative to the branched alcohol from which it is derived” value is listed as “at least 10 times”.
As to `O=S1(=O)OC(c2ccc(O)cc2)(c2ccc(O)cc2)c2ccccc21` [Phenol Red], the activity at 100 µM in the series with human sebocytes (Homo sapiens, 20 h, read-out: radioactive label remaining in the sebocytes, % of Control) was found to be 46.3%.
For the compound “C13 isoalcohol carboxyethylate (TDCE) [Compound 1]”, in series [1], the “color compared with TDCM” value was “lighter in color”. Moreover, the results for the “radioactive label remaining in the sebocytes, % of Control” value in the series with human sebocytes (1 µM), in the series on human sebocytes (10 µM) and in the series with human sebocytes (100 µM) were 48.7* %, 34.6* % and 11.9* %, respectively. Moreover, the IC50 in the series on human sebocytes (setting [3]) is 5 µM.
In the case of C13 isoalcohol glycerol [Compound 5], the IC50 in the series on human sebocytes (setting [3]) was above 100 µM.
Regarding “C13 isoalcohol propionitrile [Compound 2]”, in the series with human sebocytes (setting [3]), the IC50 was above 100 µM.
Regarding Iso-tridecyl carboxymethylate [TDCM], the “radioactive label remaining in the sebocytes, % of Control” value is on record as 84.8* % in the series on human sebocytes (1 μM test agent, 20 hour incubation, 96 well plate, lower = greater inhibition of lipogenesis); 43.4* % in the series with human sebocytes (10 μM test agent, 20 hour incubation, 96 well plate, lower = greater inhibition of lipogenesis); 22.8* % in the series on human sebocytes (100 μM test agent, 20 hour incubation, 96 well plate, lower = greater inhibition of lipogenesis).
